Data on 6 molecules can be found in patent US20070167431A1, “Method for the treatment of cognitive dysfunction” (Wyeth, priority 2006, published 2007).

The subject of one experiment is recognition memory. In kind it is in vivo. As to conditions: 48-hour interval. An excerpt: In this evaluation, donepezil (Aricept) is used as the acetylcholinesterase inhibitor component and 3-(1-naphthylsulfonyl)-5-piperazin-1-yl-1H-indazole (Test Compound A) is used as the 5-HT6 component. Novel object recognition is a single trial non-aversive learning paradigm that utilizes the rodent's natural tendency to explore an unfamiliar object more than a familiar one. The learning phase of the paradigm consists of recording the amount of time a rat explores two identical objects it has never seen before during a 5-minute period. Following a 48-hour interval, during which the animal is returned to its homecage, the animal is placed back into the same environment now containing one of the original objects (familiar) and one never experienced before (novel). Recognition memory is reflected as an increase in time spent exploring the novel object relative to that spent exploring the familiar one. The amount of time each animal spends exploring the two objects during the memory trial is analyzed using a repeated-measures ANOVA. […] All treatments were administered prior to the first trial either orally (Test Compound A) or i.p. (Aricept).

The test system of experiment [1] is acetylcholine release in dorsal hippocampus. As to the kind of experiment: Acetylcholine release in rat dorsal hippocampus, microdialysis. It is filed as in vivo, Sprague Dawley rats. As to conditions: rat dorsal hippocampus dialysate. An excerpt:
Male Sprague Dawley rats were anesthetized with halothane and secured in a stereotaxic frame to allow implantation of a microdialysis guide cannula above the dorsal hippocampus (coordinatesXXX; Paxinos & Watson 1986). The guide cannula was secured using dental acrylic and two small skull screws. Following surgery, animals were individually housed in microdialysis cages with free access to food and water. The following day a microdialysis probe was inserted via the guide cannula into the hippocampus. Probes were perfused with artificial cerebrospinal fluid at a flow rate of 0.5 μl/min. Dialysates were collected every 40 min and were put on dry ice immediately after collection for subsequent analysis. A 3 h stabilization period was allowed following probe insertion after which time baseline samples were collected for 120 min. Rats were then dosed with Aricept (0.5 mg/kg i.p.) or vehicle (saline, 1 ml/kg i.p.). […] Following dosing, dialysis samples were collected for 200 min. At the end of the experiment, animals were euthanized and probe placement was verified histologically. Data from animals with incorrect probe placement were discarded. Dialysates were analyzed for ACh content using LC/MS/MS.

For experiment [2], the target named is T1, human 5-HT6 receptor stabily transfected into HELA cells (Homo sapiens, UniProt P50406).
T1 construct: expressed in transfected cells; host or cells: HELA cells, stably transfected
T1 sequence (P50406 whole entry): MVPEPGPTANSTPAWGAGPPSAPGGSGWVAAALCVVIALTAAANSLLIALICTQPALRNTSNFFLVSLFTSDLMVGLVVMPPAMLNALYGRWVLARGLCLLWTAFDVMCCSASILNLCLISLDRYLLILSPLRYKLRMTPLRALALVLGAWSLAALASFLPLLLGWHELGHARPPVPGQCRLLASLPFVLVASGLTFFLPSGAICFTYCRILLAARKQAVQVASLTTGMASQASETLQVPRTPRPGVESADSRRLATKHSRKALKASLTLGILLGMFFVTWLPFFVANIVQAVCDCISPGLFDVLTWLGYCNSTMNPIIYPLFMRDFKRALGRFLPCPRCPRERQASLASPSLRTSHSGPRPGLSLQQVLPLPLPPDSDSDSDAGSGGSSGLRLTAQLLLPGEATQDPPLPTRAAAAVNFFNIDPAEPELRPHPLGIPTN
As to the kind of experiment: 5-HT6 antagonist activity using cAMP accumulation. It is filed as cell-based. The conditions noted are these: decrease of cAMP relative to serotonin (100 nM); 100% Imax indicates 0% intrinsic activity. The protocol:
Intracellular cAMP levels are measured using 96-well plates containing the human 5-HT6 receptor stabily transfected into HELA cells. Upon initiation of the assay, the media from cell maintenance is aspirated and cells are preincubated at 37° C. for 15 mins. in KREBS buffer. Following this primary incubation, the buffer is aspirated and an additional incubation is performed at 37° C. for 5 mins. in KREBS buffer containing 500 uM IBMX (3-isobutyl-1-methylxanthine). Subsequently cells are incubated with test compound concentrations ranging from 10^-5 to 10^-10M for 10 minutes at 37° C. Serotonin (100 nM) is added to the treated cells and incubated for an additional 10 minutes at 37° C. The assay is terminated by the addition of 0.5M perchloric acid. Intracellular CAMP levels are determined by radioimmunoassay through the cAMP SPA screening kit. Data are analyzed graphically with GraphPad Prism (GraphPad Software, San Diego, Calif.). […] The value is recorded as Imax (%) and shown on Table I. (100% Imax indicates 0% intrinsic activity.)

For experiment [3], the target named is T2, human cloned 5-HT6 receptors (Homo sapiens, UniProt P50406).
T2 construct: expressed in transfected cells; host or cells: Hela cells (membrane preparation)
T2 sequence (P50406 whole entry): as above
As to the kind of experiment: 5-HT6 binding affinity, [3H]-LSD displacement on membranes of Hela cells. The protocol: The affinity of test compounds for the serotonin 5-HT6 receptor is evaluated in the following manner. Cultured Hela cells expressing human cloned 5-HT6 receptors are harvested and centrifuged at low speed (1,000×g) for 10.0 min to remove the culture media. The harvested cells are suspended in half volume of fresh physiological phosphate buffered saline solution and recentrifuged at the same speed. This operation is repeated. The collected cells are then homogenized in ten volumes of 50 mM Tris.HCl (pH 7.4) and 0.5 mM EDTA. The homogenate is centrifuged at 40,000×g for 30.0 min and the precipitate is collected. The obtained pellet is resuspended in 10 volumes of Tris.HCl buffer and recentrifuged at the same speed. The final pellet is suspended in a small volume of Tris.HCl buffer and the tissue protein content is determined in aliquots of 10-25 μl volumes. […] The volume of the suspended cell membranes is adjusted to give a tissue protein concentration of 1.0 mg/ml of suspension. The prepared membrane suspension (10 times concentrated) is aliquoted in 1.0 ml volumes and stored at −70° C. until used in subsequent binding experiments.
Binding experiments are performed in a 96 well microtiter plate format, in a total volume of 200 μl. […] The test compounds are added in 20.0 μl volume.
The bound complex caught on the filter disk is allowed to air dry and the radioactivity is measured in a Packard TopCount® equipped with six photomultiplier detectors, after the addition of 40.0 μl Microscint®-20 scintillant to each shallow well.
Binding in the presence of varying concentrations of test compound is expressed as a percentage of specific binding in the absence of test compound. The results are plotted as log % bound versus log concentration of test compound. […] A linear regression line of data points is plotted, from which the IC50 value is determined and the Ki value is determined based upon the following equation: […]
where L is the concentration of the radioactive ligand used and KD is the dissociation constant of the ligand for the receptor, both expressed in nM.

The mark [4] stands for this setting: 5-HT6 antagonist 1 mg/kg po alone.

“Also recorded” adds a separate entry of the source. Where two headings read alike, the source gives them in different places.

In the case of `COc1ccc2c3c1O[C@H]1C[C@@H](O)C=C[C@@]31CCN(C)C2` [Razadyne, galanthamine], the “retention for the familiar objects (novel object recognition)” value (“retention for the familiar objects” for short) in the experiment on recognition memory (Razadyne 0. alone) is “neither Razadyne (0.1 mg/kg, ip) alone nor Test Compound B (1 mg/kg, po) alone enhanced retention”.
Take `COc1cc2c(cc1OC)C(=O)C(CC1CCN(Cc3ccccc3)CC1)C2` (centres unmarked) [Aricept, donepezil]: the “retention for the familiar objects” value in the experiment on recognition memory (Aricept 0.5 mg/kg ip alone) was “neither Aricept (0.5 mg/kg, ip) nor Test Compound A (1 mg/kg, po) alone enhanced retention; also recorded: produced no enhancement of recognition memory; also recorded: neither Aricept (0.5 mg/kg, ip) alone nor Test Compound B (1 mg/kg, po) alone enhanced retention”; with recognition memory (Aricept alone), “enhanced retention for the familiar objects”. Further, the “increase in acetylcholine concentration (change from baseline)” value in experiment [1] (Aricept 0.5 mg/kg i.p. alone) is reported as 50%.
Consider `O=S(=O)(c1cccc2ccccc12)c1n[nH]c2ccc(N3CCNCC3)cc12` [Test Compound A, 3-(1-naphthylsulfonyl)-5-piperazin-1-yl-1H-indazole], for which the “retention for the familiar objects” value is “neither Aricept (0.5 mg/kg, ip) nor Test Compound A (1 mg/kg, po) alone enhanced retention” in the experiment with recognition memory (setting [4]) and “enhanced retention for the familiar objects” in the experiment with recognition memory (5-HT6 antagonist 3 mg/kg po alone). Besides, the “% Imax” value in experiment [2] amounted to 100%. Further, in experiment [3], the Ki came out at 1.1 nM.
Consider `CN(C)CCCOc1ccc2[nH]nc(S(=O)(=O)c3cccc4ccccc34)c2c1` [Test Compound B, N,N-dimethyl-3-{[3-(1-naphthylsulfonyl)-1H-indazol-5-yl]oxy}propan-1-amine], for which, in the experiment on recognition memory (setting [4]), the “retention for the familiar objects” value is “neither Aricept (0.5 mg/kg, ip) alone nor Test Compound B (1 mg/kg, po) alone enhanced retention; also recorded: neither Razadyne (0.1 mg/kg, ip) alone nor Test Compound B (1 mg/kg, po) alone enhanced retention”. The “effect on acetylcholine concentration (change from baseline)” value in experiment [1] (Test Compound B 1 mg/kg p.o. alone) is “did not affect acetylcholine”.
Take `NCCOc1cccc2c(S(=O)(=O)c3cccc4ccccc34)n[nH]c12` [Test Compound C, (2-{[3-(1-naphthylsulfonyl)-1H-indazol-7-yl]oxy}ethyl)amine]: the “% Imax” value in experiment [2] is reported as 100%. Besides, in experiment [3], the affinity, expressed as Ki, was 1.9 nM.
On the same counts, the results for `O=S(=O)(c1ccccc1)n1ncc2c(N3CCNCC3)cccc21` [Test Compound D, 1-(phenylsulfonyl)-4-(1-piperazinyl)-1H-indazole] are 100% and 0.6 nM.
